One test has as its system P-388. As to the kind of experiment: Inhibition of cell growth by counting cells, P-388. It is filed as cell-based, mouse. Conditions: three days of incubation, read-out: IC50 (molar) P-388. The method, then:
(§1) 1°.—Inhibition of Cell Growth by Counting Cells.
(§2) This form of the assay employs 24 well multidishes of 16 mm diameter (Bergeron, 1984; Schroeder, 1981). The tumor cell lines employed are: P-388 (ATCC CCL 46), suspension culture of a lymphoid neoplasm from a DBA/2 mouse; A-549 (ATCC CCL 185), monolayer culture of a human lung carcinoma; HT-29 (ATCC HTB-38), monolayer culture of a human colon carcinoma; MEL-28 (ATCC HTB-72), monolayer culture of a human melanoma and DU-145 (ATCC HTB-81), monolayer culture of a human prostate carcinoma.
(§3) Cells were maintained, in logarithmic phase of growth in Eagle's Minimum Essential Medium, with Earle's Balanced Salts, with non-essential amino acids, with 2.0 mM L-Glutamine, without sodium bicarbonate (EMEM/neaa), supplemented with 10% Fetal Calf Serum (FCS), 10^−2 M. sodium bicarbonate and 0.1 U/l penicillin G+0.1 g/l streptomycin sulfate. For the experiments, cells are harvested from subconfluent cultures using trypsin and resuspended in fresh medium before plating.
(§4) P-388 cells were seeded into 16 mm diameter wells at 1×10^4 cells per well in 1 ml aliquots of EMEM 5% FCS containing different concentrations of the sample to be tested. A separate set of cultures without drug was seeded as control of growth, to ensure that cells remained in exponential phase of growth. All determinations are carrying out in duplicate.
(§5) For quantifying the activity, after the incubation time, cells are trypsinized and counted in a Coulter Counter ZM. All counts (net cells per well), represent the average of duplicate wells. % G, percent of growth relative to cultures without drug. The results of these assays are used to generate dose-response curves from which more precise IC50 values are determined (sample concentration which produces 50% cell growth inhibition).
(§6) Obtained results may predict the usefulness of a certain drug as a potential cancer treatment. For this technique, compounds which show IC50 values smaller than 1 μg/ml are selected to continue with further studies. IC50's data allow to predict that not only could a drug be cystostatic, but also it could have a potential in terms of tumor reduction.

A further test concerns A-549. As to the kind of experiment: Inhibition of cell growth by counting cells, A-549. Conditions: three days of incubation, read-out: IC50 (molar) A-549. In kind it is cell-based, human. The method in brief:
(§7)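 Human tumor cells were seeded at 1×10^4 cells per well in EMEM with 5% FCS containing graded compound concentrations, in duplicate, and incubated three days at 37° C, 5% CO2. Cells were then trypsinized and counted electronically; IC50 came from dose-response curves of percent growth versus drug-free controls.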

The subject of a further test is HT-29. As to the kind of experiment: Inhibition of cell growth by counting cells, HT-29. In kind it is cell-based, human. Conditions: three days of incubation, read-out: IC50 (molar) HT-29. The method in brief:
as §7

In a further test the test system is MEL-28. The test is described as follows: Inhibition of cell growth by counting cells, MEL-28. Particulars: three days of incubation, read-out: IC50 (molar) MEL-28. In kind it is cell-based, human. The protocol:
as §1, §2, §3
as §4, with “A-549, HT-29, MEL-28 and DU-145” for “P-388”, “duplicate. After three days of incubation at 37° C., 5% CO2 in a 98% humid atmosphere cells were stained with 0.1% crystal violet. An approximately IC50 was determined by comparing the growth in wells with drug to the growth in wells control.” for “duplicate.”
as §5, §6

In the next test the test system is DU-145. As to the kind of experiment: Inhibition of cell growth by counting cells, DU-145. It is filed as cell-based, human. Conditions: read-out: IC50 (molar) DU-145. The protocol: as §1, §2, §3
as §4, with “A-549, HT-29, MEL-28 and DU-145” for “P-388”, “duplicate. After three days of incubation at 37° C., 5% CO2 in a 98% humid atmosphere cells were stained with 0.1% crystal violet. An approximately IC50 was determined by comparing the growth in wells with drug to the growth in wells control.” for “duplicate.”
as §5, §6

Where [1] appears, read: Homo sapiens, DU-145, 72 h, three days of incubation.

Where two headings read alike, the source gives them in different places.

On to `COc1cc2c(cc1OC(=O)OC(C)(C)C)CCN[C@]21CS[C@@H]2c3c(OC(C)=O)c(C)c4c(c3[C@H](COC1=O)N1C2[C@H]2c3c(cc(C)c(OC)c3OC(=O)OC(C)(C)C)C[C@@H]([C@@H]1C#N)N2C)OCO4` (stereo partly drawn) [Compound 5], for which the concentration for half-maximal inhibition (IC50) in the test with P-388 (Mus musculus, P388, 72 h) was 0.515 nM; in the test with A-549 (Homo sapiens, A549, 72 h) it was 0.515 nM; in the test on HT-29 (Homo sapiens, HT-29, 72 h), 0.515 nM; in the test with MEL-28 (Homo sapiens, SK-MEL-28, 72 h), 0.515 nM; in the test on DU-145 (setting [1]), 0.515 nM.
Regarding `CCCC(=O)Oc1cc2c(cc1OC)[C@@]1(CS[C@@H]3c4c(OC(C)=O)c(C)c5c(c4[C@H](COC1=O)N1C3[C@H]3c4c(cc(C)c(OC)c4O)C[C@@H]([C@@H]1C#N)N3C)OCO5)NCC2` (stereo partly drawn) [Compound 7], the 50% inhibitory concentration (IC50) is 0.119 nM in the test with P-388 (Mus musculus, P388, 72 h); 0.119 nM in the test with A-549 (Homo sapiens, A549, 72 h); 0.595 nM in the test with HT-29 (Homo sapiens, HT-29, 72 h); 0.119 nM in the test with MEL-28 (Homo sapiens, SK-MEL-28, 72 h); 0.595 nM with DU-145 (setting [1]).
For the compound `COc1cc2c(cc1OC(=O)/C=C/c1ccccc1)CCN[C@]21CS[C@@H]2c3c(OC(C)=O)c(C)c4c(c3[C@H](COC1=O)N1C2[C@H]2c3c(cc(C)c(OC)c3O)C[C@@H]([C@@H]1C#N)N2C)OCO4` (stereo partly drawn) [Compound 8], the IC50 in the test on P-388 (Mus musculus, P388, 72 h) is 0.111 nM; in the test with A-549 (Homo sapiens, A549, 72 h), 0.111 nM; with HT-29 (Homo sapiens, HT-29, 72 h), 0.556 nM; in the test with MEL-28 (Homo sapiens, SK-MEL-28, 72 h) it was 0.111 nM; in the test with DU-145 (Homo sapiens, DU-145, 72 h), 0.556 nM.
Regarding `CCCC(=O)Oc1cc2c(cc1OC)[C@@]1(CS[C@@H]3c4c(OC(C)=O)c(C)c5c(c4[C@H](COC1=O)N1C3[C@H]3c4c(cc(C)c(OC)c4OC(=O)CCC)C[C@@H]([C@@H]1C#N)N3C)OCO5)NCC2` (stereo partly drawn) [Compound 9], the IC50 in the test on P-388 (Mus musculus, P388, 72 h) was 0.11 nM; in the test with A-549 (Homo sapiens, A549, 72 h), 0.11 nM; with HT-29 (Homo sapiens, HT-29, 72 h), 0.11 nM; with MEL-28 (Homo sapiens, SK-MEL-28, 72 h), 0.11 nM; in the test on DU-145 (setting [1]) it was 0.11 nM.
On to `COc1cc2c(cc1OC(=O)/C=C/c1ccccc1)CCN[C@]21CS[C@@H]2c3c(OC(C)=O)c(C)c4c(c3[C@H](COC1=O)N1C2[C@H]2c3c(cc(C)c(OC)c3OC(=O)/C=C/c3ccccc3)C[C@@H]([C@@H]1C#N)N2C)OCO4` (stereo partly drawn) [Compound 10], for which the IC50 came to 9.7 nM in the test on P-388 (Mus musculus, P388, 72 h); 9.7 nM in the test on A-549 (Homo sapiens, A549, 72 h); 9.7 nM in the test with HT-29 (Homo sapiens, HT-29, 72 h); 9.7 nM with MEL-28 (Homo sapiens, SK-MEL-28, 72 h); 9.7 nM with DU-145 (Homo sapiens, DU-145, 72 h).
As to `CCCCCCCC(=O)Oc1cc2c(cc1OC)[C@@]1(CS[C@@H]3c4c(OC(C)=O)c(C)c5c(c4[C@H](COC1=O)N1C3[C@H]3c4c(cc(C)c(OC)c4O)C[C@@H]([C@@H]1C#N)N3C)OCO5)NCC2` (stereo partly drawn) [Compound 14], the concentration for half-maximal inhibition (IC50) in the test with P-388, in the test on A-549, in the test with HT-29, with MEL-28 and in the test with DU-145 (three days of incubation) was 1.11 nM throughout.
Consider `CCCCCCCC(=O)Oc1cc2c(cc1OC)[C@@]1(CS[C@@H]3c4c(OC(C)=O)c(C)c5c(c4[C@H](COC1=O)N1C3[C@H]3c4c(cc(C)c(OC)c4OC(=O)CCCCCCC)C[C@@H]([C@@H]1C#N)N3C)OCO5)NCC2` (stereo partly drawn) [Compound 15], for which the concentration for half-maximal inhibition (IC50) in the test with P-388 (Mus musculus, P388, 72 h) amounted to 97.8 nM; with A-549 (Homo sapiens, A549, 72 h), 97.8 nM; in the test with HT-29 (Homo sapiens, HT-29, 72 h), 97.8 nM; with MEL-28 (Homo sapiens, SK-MEL-28, 72 h), 97.8 nM; in the test on DU-145 (setting [1]), 97.8 nM.
On to `CCCCCCCCCCCCCCCC(=O)Oc1cc2c(cc1OC)[C@@]1(CS[C@@H]3c4c(OC(C)=O)c(C)c5c(c4[C@H](COC1=O)N1C3[C@H]3c4c(cc(C)c(OC)c4O)C[C@@H]([C@@H]1C#N)N3C)OCO5)NCC2` (stereo partly drawn) [Compound 16], for which the IC50 with P-388 (Mus musculus, P388, 72 h) is 9.91 nM; with A-549 (Homo sapiens, A549, 72 h), 9.91 nM; in the test with HT-29 (Homo sapiens, HT-29, 72 h), 9.91 nM; with MEL-28 (Homo sapiens, SK-MEL-28, 72 h), 9.91 nM; in the test on DU-145 (setting [1]), 9.91 nM.
In the case of `CCCCCCCCCCCCCCCC(=O)Oc1cc2c(cc1OC)[C@@]1(CS[C@@H]3c4c(OC(C)=O)c(C)c5c(c4[C@H](COC1=O)N1C3[C@H]3c4c(cc(C)c(OC)c4OC(=O)CCCCCCCCCCCCCCC)C[C@@H]([C@@H]1C#N)N3C)OCO5)NCC2` (stereo partly drawn) [Compound 17], the 50% inhibitory concentration (IC50) worked out at 80.2 nM in the test with P-388 (Mus musculus, P388, 72 h); 80.2 nM in the test on A-549 (Homo sapiens, A549, 72 h); 80.2 nM in the test with HT-29 (Homo sapiens, HT-29, 72 h); 80.2 nM in the test on MEL-28 (Homo sapiens, SK-MEL-28, 72 h); 80.2 nM with DU-145 (setting [1]).

These data come from US7759345B2, “Antitumoral derivatives of ET-743” (priority 2001, dated 2010).
